Experimental data from ChEMBL document CHEMBL4627397 (J Med Chem, 2020).

What was measured:
[1] = in vitro; settings: dog, MDCK
Description: Apparent permeability in RRCK cells

[2] = in vitro; settings: human, hepatocytes
Description: Intrinsic clearance in human hepatocytes at 0.2 nmol assessed per million cells up to 240 mins in presence of NADPH by LC-MS/MS analysis

[3] = in vitro; settings: human, liver microsomes
[4] = physchem; settings: octanol/water, pH 7.4
Description: Octanol/water partition coefficient, log D of compound at pH 7.4 by shake-flask method

Row | Papp [1] [×10⁻⁶ cm/s] | hepatocyte CLint at 4 h [2] [µL/min/1e6 cells] | microsomal CLint at 1 h, 10 µM [3] [µL/min/mg] | logD [4] | SMILES
1 | 16.2 | 58.6 | 283 | 2.6 | CCOC(=O)N1CCC(=C2c3ccc(Cl)cc3CCc3c(CO)ccnc32)CC1
2 | 11 | 96 | 132 | 3.1 | CCOC(=O)N1CCC(=C2c3ccc(Cl)cc3CCc3cc(O)cnc32)CC1
3 | 0.2 | 6 | 23 | 0.3 | CCOC(=O)N1CCC(=C2c3ccc(Cl)cc3CCc3ccc[n+](C)c32)CC1
4 |  | 62 | 61 | 3.9 | CCOC(=O)N1C=C/C(=C2/c3ccc(Cl)cc3CCc3cc(O)cnc32)CC1
5 | 78 | 82 |  | 3.4 | CCOC(=O)N1C=C/C(=C2\c3ccc(Cl)cc3CC(O)c3cccnc32)CC1 (configuration not stated)
6 | 7.7 | 48.7 | 108 | 4.6 | CCOC(=O)N1CCC(=C2c3ccc(Cl)cc3CCc3ccc(C(F)F)nc32)CC1
7 | 17.9 | 26.2 | 89 | 2.9 | CCOC(=O)N1CCC2(CC1)OC21c2ccc(Cl)cc2CCc2cccnc21 (configuration not stated)
8 | 19.8 | 14 | 21 | 2.3 | CCOC(=O)N1C(O)CC(=C2c3ccc(Cl)cc3CCc3cccnc32)CC1O (configuration not stated)
9 | 13 | 32 | 120 | 4.5 | CCOC(=O)N1CCC(=C2c3ccc(Cl)cc3CC(F)c3cccnc32)CC1 (configuration not stated)
10 | 26.2 | 40 | 157 | 3.2 | CCOC(=O)N1CCC(=C2c3ccc(Cl)cc3C(O)Cc3cccnc32)CC1 (configuration not stated)
11 | 98 | 9 |  | 2.6 | CCOC(=O)N1CCC(=C2c3ccc(Cl)cc3C=Cc3cccnc32)CC1
12 | 53 |  |  | 3.6 | CCOC(=O)N1C=C/C(=C2/c3ccc(Cl)cc3CCc3cccnc32)CC1
13 |  | 67 | 66 | 3.1 | CCOC(=O)N1C=C/C(=C2\c3ccc(Cl)cc3CCc3cc(O)cnc32)CC1
14 | 23.7 | 61.5 | 132 | 3.3 | CCOC(=O)N1CCC(=C2c3ccc(Cl)cc3CC(O)c3cccnc32)CC1 (configuration not stated)
15 | 23 | 18 | 35 | 2.8 | CCOC(=O)N1CC(O)C(=C2c3ccc(Cl)cc3CCc3cccnc32)C(O)C1 (configuration not stated)
16 | 78.4 | 3.14 |  | 1.1 | OC1Cc2cc(Cl)ccc2C(=C2CCNCC2)c2ncccc21 (configuration not stated)
17 | 79.9 | < 1.75 |  | 0.94 | OC1Cc2cccnc2C(=C2CCNCC2)c2ccc(Cl)cc21 (configuration not stated)
18 | 15.2 | 4.6 | < 7 | 2.1 | CCOC(=O)N1CCC2(CC1)OC21c2ccc(Cl)cc2CCc2ccc[n+]([O-])c21 (configuration not stated)
19 | 26.8 | 17.8 | 48 | 2.8 | CCOC(=O)N1CCC(=C2c3ccc(Cl)cc3CCc3ccc[n+]([O-])c32)CC1
20 | 22 | 19 | 51 | 3.1 | CCOC(=O)N1CC/C(=C2/c3ccc(Cl)cc3CCc3cccnc32)C(O)C1 (configuration not stated)
21 | 40 |  | 68 | 4.3 | CCOC(=O)N1C=C/C(=C2\c3ccc(Cl)cc3CCc3cccnc32)CC1

Row | SMILES | Papp [1] [×10⁻⁶ cm/s] | hepatocyte CLint at 4 h [2] [µL/min/1e6 cells] | microsomal CLint at 1 h, 10 µM [3] [µL/min/mg] | logD [4]
22 | Clc1ccc2c(c1)CCc1cccnc1C2=C1CCNCC1 [DESLORATADINE] | 2.8 |  |  | 1.3
